# Measured values taken from patent US11291648B2, “Powdered formulations of cromolyn sodium and alpha-lactose” (The General Hospital Corporation, priority 2018, dated 2022).
# Read-outs that look alike come from different tables or passages of the source.
# Columns and labels:
# [1] = Table 5, Gilani et al.; cited from earlier work
# [2] = Particle size distribution (PSD) of formulation components; type: physicochemical; details: for D10 (3-6 μm) / D50 (20-25 μm) / D90 (50-60 μm): α-Lactose (DFE Pharma Lactohale LH201), Table 3; for D90 / D10 / D50: Cromolyn API (micronized), Table 2; for D50 (<5 μm) / D90 (<10 μm): Magnesium Stearate (micronized), Table 4
# Text: The methodology included particle size determination (PSD); powdered x-ray crystallization diffraction (PXRD); and gravimetric vapor sorption (GVS).
compound,measurement,setting,value
"OC[C@H]1O[C@@H](O[C@H]2[C@H](O)[C@@H](O)[C@@H](O)O[C@@H]2CO)[C@H](O)[C@@H](O)[C@H]1O [Batch P450M, α-Lactose]",D10,[1],2.5 ± 0.3
same,D90,[1],26.5 ± 0.3
"OC[C@H]1O[C@@H](O[C@H]2[C@H](O)[C@@H](O)[C@@H](O)O[C@@H]2CO)[C@H](O)[C@@H](O)[C@H]1O [Lot# 16-0127, α-Lactose]",D10 (3-6 μm),[2]; listed as 16-0127,3 μm
same,D50 (20-25 μm),[2]; listed as 16-0127,22 μm
same,D90 (50-60 μm),[2]; listed as 16-0127,59 μm
"O=C(O)c1cc(=O)c2c(OCC(O)COc3cccc4oc(C(=O)O)cc(=O)c34)cccc2o1 [Lot # 15-0079, Cromolyn sodium]",D90,[2]; listed as 15-0079,4.2 μm
OC[C@H]1O[C@@H](O[C@H]2[C@H](O)[C@@H](O)[C@@H](O)O[C@@H]2CO)[C@H](O)[C@@H](O)[C@H]1O [α-Lactose],Particle size D10,"[2]; component of Batch 1, Table 8",3 μm
same,Particle size D50,"[2]; component of Batch 1, Table 8",21 μm
same,Particle size D90,"[2]; component of Batch 1, Table 8",54 μm
same,Particle size D10,"[2]; component of Batch 2, Table 8",4 μm
same,Particle size D50,"[2]; component of Batch 2, Table 8",23 μm
same,Particle size D90,"[2]; component of Batch 2, Table 8",57 μm
same,Particle size D10,"[2]; component of Batch 3, Table 8",3 μm
same,Particle size D50,"[2]; component of Batch 3, Table 8",22 μm
same,Particle size D90,"[2]; component of Batch 3, Table 8",59 μm
Magnesium Stearate [Lot 15-0077],D50 (<5 μm),[2]; listed as 15-0077,4.82 μm
same,D90 (<10 μm),[2]; listed as 15-0077,9.28 μm
Magnesium Stearate [Lot 14-0035],D50 (<5 μm),[2]; listed as 14-0035,3.56 μm
same,D90 (<10 μm),[2]; listed as 14-0035,6.74 μm
"O=C(O)c1cc(=O)c2c(OCC(O)COc3cccc4oc(C(=O)O)cc(=O)c34)cccc2o1 [Lot # 15-0013, Cromolyn sodium]",D10,[2]; listed as 15-0013,0.6 μm
same,D50,[2]; listed as 15-0013,1.8 μm
same,D90,[2]; listed as 15-0013,3.8 μm
"OC[C@H]1O[C@@H](O[C@H]2[C@H](O)[C@@H](O)[C@@H](O)O[C@@H]2CO)[C@H](O)[C@@H](O)[C@H]1O [Lot# 13-0094, α-Lactose]",D10 (3-6 μm),[2]; listed as 13-0094,3 μm
same,D50 (20-25 μm),[2]; listed as 13-0094,21 μm
same,D90 (50-60 μm),[2]; listed as 13-0094,54 μm
"OC[C@H]1O[C@@H](O[C@H]2[C@H](O)[C@@H](O)[C@@H](O)O[C@@H]2CO)[C@H](O)[C@@H](O)[C@H]1O [Batch P325M, α-Lactose]",D10,[1],6.6 ± 0.8
same,D90,[1],74.1 ± 3.8
Magnesium Stearate [Lot 18-0038],D50 (<5 μm),[2]; listed as 18-0038,4.33 μm
same,D90 (<10 μm),[2]; listed as 18-0038,8.04 μm
"O=C(O)c1cc(=O)c2c(OCC(O)COc3cccc4oc(C(=O)O)cc(=O)c34)cccc2o1 [Cromolyn Sodium, Cromolyn sodium]",Particle size D10,"[2]; component of Batch 1, Table 8",0.6 μm
same,Particle size D50,"[2]; component of Batch 1, Table 8",1.8 μm
same,Particle size D90,"[2]; component of Batch 1, Table 8",3.8 μm
same,Particle size D90,"[2]; component of Batch 2, Table 8",4.2 μm
same,Particle size D10,"[2]; component of Batch 3, Table 8",0.6 μm
same,Particle size D50,"[2]; component of Batch 3, Table 8",1.8 μm
same,Particle size D90,"[2]; component of Batch 3, Table 8",3.8 μm
same,D10,[1],0.7 ± 0.1
same,D50,[1],1.52 ± 0.2
same,D90,[1],3.03 ± 0.02
"OC[C@H]1O[C@@H](O[C@H]2[C@H](O)[C@@H](O)[C@@H](O)O[C@@H]2CO)[C@H](O)[C@@H](O)[C@H]1O [Lot# 15-0066, α-Lactose]",D10 (3-6 μm),[2]; listed as 15-0066,4 μm
same,D50 (20-25 μm),[2]; listed as 15-0066,23 μm
same,D90 (50-60 μm),[2]; listed as 15-0066,57 μm
Magnesium Stearate [Mg St],Particle size D10,"[2]; component of Batch 1, Table 8",3.3 μm
same,Particle size D50,"[2]; component of Batch 1, Table 8",8.3 μm
same,Particle size D90,"[2]; component of Batch 1, Table 8",22.6 μm
same,Particle size D50,"[2]; component of Batch 2, Table 8",4.82 μm
same,Particle size D90,"[2]; component of Batch 2, Table 8",9.28 μm
same,Particle size D50,"[2]; component of Batch 3, Table 8",4.33 μm
same,Particle size D90,"[2]; component of Batch 3, Table 8",8.04 μm
"O=C(O)c1cc(=O)c2c(OCC(O)COc3cccc4oc(C(=O)O)cc(=O)c34)cccc2o1 [Lot # 13-0105, Cromolyn sodium]",D10,[2]; listed as 13-0105,0.5 μm
same,D50,[2]; listed as 13-0105,1.9 μm
same,D90,[2]; listed as 13-0105,4.6 μm
